Reference: BindingDB's records for PubMed 2795135 (Stanford University, 1989)
“And” between values parts separate entries of the source, which are not always exact repeats. Equal entries are not always repeated.

Key:
[1] = target: 5-hydroxytryptamine receptor 2A (Rattus norvegicus, UniProt P14842)
[2] = target: 5-hydroxytryptamine receptor 2B (Bos taurus, UniProt Q8MI09)
5-hydroxytryptamine receptor 2B, sequence (Q8MI09 whole entry): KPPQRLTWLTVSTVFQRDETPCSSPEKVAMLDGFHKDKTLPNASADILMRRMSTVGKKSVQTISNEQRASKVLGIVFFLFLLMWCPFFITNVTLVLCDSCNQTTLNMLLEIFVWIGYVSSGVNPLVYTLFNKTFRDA

5-hydroxytryptamine receptor 2A, sequence (P14842 whole entry): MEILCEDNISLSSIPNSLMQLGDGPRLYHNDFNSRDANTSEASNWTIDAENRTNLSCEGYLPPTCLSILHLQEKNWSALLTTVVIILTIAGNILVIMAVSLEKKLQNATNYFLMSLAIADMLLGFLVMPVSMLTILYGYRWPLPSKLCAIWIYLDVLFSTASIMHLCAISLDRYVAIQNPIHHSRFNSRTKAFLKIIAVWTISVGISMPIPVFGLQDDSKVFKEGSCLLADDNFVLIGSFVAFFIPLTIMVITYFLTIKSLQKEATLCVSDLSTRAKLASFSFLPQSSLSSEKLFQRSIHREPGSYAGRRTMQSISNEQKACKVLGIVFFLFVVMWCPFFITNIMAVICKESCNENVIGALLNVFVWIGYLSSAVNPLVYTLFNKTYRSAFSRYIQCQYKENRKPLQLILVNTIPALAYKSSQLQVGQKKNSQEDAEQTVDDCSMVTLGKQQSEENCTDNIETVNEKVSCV

SMILES	Ki [1]	Ki [2]
CCCN(CCC)C1CCc2cccc(O)c2C1 (stereo not drawn)	700 nM	5400 nM
CN1C2CCC1CC(OC(=O)c1c[nH]c3ccccc13)C2 (stereo not drawn)	> 10000 nM	2600 nM
CCc1cc(OC)c(CC(C)N)cc1OC (stereo not drawn)	–	80 nM
NCCc1c[nH]c2ccccc12 [1H-indole-3-ethanamine]	11 nM	1300 nM
CN(C)CCc1c[nH]c2ccccc12 [2-(1H-indol-3-yl)-N,N-dimethylethanamine]	42 nM	550 nM
c1ccc2nc(N3CCNCC3)ccc2c1 [2-Piperazin-1-yl-quinoline (Quipazine)]	5 nM	460 nM
COc1cc(CCN)cc(OC)c1OC [3,4,5-trimethoxyphenylethylamine]	150 nM	> 10000 nM
COc1ccc2[nH]cc(CCN(C)C)c2c1 [3-(2-DIMETHYLAMINOETHYL)-5-METHOXYINDOLE]	14 nM	1300 nM
O=C(c1ccc(F)cc1)C1CCN(CCn2c(=O)[nH]c3ccccc3c2=O)CC1 [3-(2-{4-[(4-fluorophenyl)carbonyl]piperidin-1-yl}ethyl)-1,2,3,4-tetrahydroquinazoline-2,4-dione]	–	2.4 nM
CN(C)CCc1c[nH]c2cccc(O)c12 [4-hydroxy-N,N-dimethyltryptamine]	12 nM	450 nM
COc1ccc2[nH]cc(C3=CCNCC3)c2c1 [5-Methoxy-3-(1,2,3,6-tetrahydro-pyridin-4-yl)-1H-indole(RU-24969)]	–	1200 nM
CCN(CC)C(=O)[C@@H]1C=C2c3cccc4[nH]cc(c34)C[C@H]2N(C)C1 [(4R,7R)-N,N-diethyl-6-methyl-6,11-diazatetracyclo[7.6.1.0^{2,7}.0^{12,16}]hexadeca-1(16),2,9,12,14-pentaene-4-carboxamide]	–	11 nM
COc1cc(CC(C)N)c(OC)cc1C (stereo not drawn) [(+/-)2-(2,5-Dimethoxy-4-methyl-phenyl)-1-methyl-ethylamine]	4.8 nM	400 nM
CN(C)CCCSc1ccccc1NC(=O)/C=C/c1ccccc1 [CINANSERIN]	7 nM	5 nM
CN1C[C@@H](NS(=O)(=O)N(C)C)C[C@@H]2c3cccc4c3c(cn4C)C[C@H]21 [MESULERGINE]	–	8 nM
CN(C)CCCN1c2ccccc2Sc2ccc(Cl)cc21 [[3-(2-Chloro-phenothiazin-10-yl)-propyl]-dimethyl-amine(Chlorpromazine)]	–	6 nM
NCCc1c[nH]c2ccc(C(N)=O)cc12 [[3H]-5-carboxamidotryptamine]	–	> 10000 nM
COc1cc(CC(C)N)c(OC)cc1I (stereo not drawn) [[125I]2,5-dimethoxy-4-iodoamphetamine]	0.89 nM and 0.53 nM	100 nM and 55 nM
Clc1cccc(N2CCNCC2)c1 [mCPP]	21 nM	960 nM
CN(C)CCc1c[nH]c2cccc(OP(=O)(O)O)c12 [psilocybin]	13 nM	600 nM
